Source: patent publication US11446287B2, “Compounds and methods for EP300 or CBP modulation and indications therefor” (Opna Immuno-Oncology SA, priority 2019, dated 2022)
pIC50: −log10 of the molar value.

Target: T1, Recombinant human BRD4 containing dual bromodomains (BRD4-BD12 (1-477)) (Homo sapiens, UniProt O60885)
T1 construct: Recombinant human BRD4 containing dual bromodomains (BRD4-BD12 (1-477)); made in house; host or cells: E. coli BL21-CodonPlus (DE3), modified pET vector
Experiment: BRD4 Alphascreen binding assay
Protocol: BRD4 Alphascreen Binding Assay
Binding of compounds of Formula (I) with BRD4 was assessed using Alphascreen binding assay. The inhibition of the interaction between BRD4 and its acetylated target protein was measured quantitatively using recombinant BRD4 protein, an acetylated Histone 4 peptide, and AlphaScreen™ technology. In absence of inhibition of the BRD4 protein bound to AlphaScreen™ nickel chelate acceptor beads can interact with the acetylated Histone 4 peptide which was immobilized by the AlphaScreen™ Streptavidin coated beads. This interaction brings donor and acceptor beads in proximity. The close proximity allows the singlet oxygen produced by laser excitation of the donor beads to reach the acceptor beads and generate a luminescence signal. BRD4 inhibitors result in a decrease in the proximity signal through an inhibition of the BRD4—acetylated peptide interaction.
Recombinant human BRD4 containing dual bromodomains (BRD4-BD12 (1-477)) was prepared and purified as described in protein expression and purification session. The peptide was human Histone H41-21K5AcK8AcK12AcK16Ac-Biotin (Anaspec CA, USA).
Protocol for BRD4 assay: All components are prepared in buffer composed of 50 mM HEPES pH 7.5, 50 mM NaCl, 0.01% BSA, 0.01% Triton X-100, 2 mM DTT. Test compounds and DMSO vehicle are diluted 1:50 in buffer and a 4 μL volume was transferred to an Alphaplate. 5.5 μL of Bromodomain protein and 5.5 μL of peptide are added to wells containing 4 μL of various concentrations of test compounds of Formula (I) or DMSO vehicle in an Alphaplate (PerkinElmer GA, USA) and incubated for 1 hour at room temperature. 5 μL donor and acceptor bead mixture was then added with final concentrations of 7.5 μg/ml. 30 minutes after bead addition, Alpha signal was read on the Envision spectrometer (λEx 680 nm, λEm 520-620 nm). Final concentrations of bromodomain proteins and peptide are as shown below.
All data were normalized to the mean of 16 high and 16 low control wells on each plate. A four parameter curve fit of the following formula was then applied: Y=A+((B−A)/(1+((C/x)^D))) Where ‘A’ is the minimum, ‘B’ is the maximum, ‘C’ is the IC50 and ‘D’ is the Hill slope. Protein Expression and Purification
Recombinant human BRD4 containing dual bromodomains (BRD4-BD12 (1-477)) was expressed in E. coli cells (in a modified pET vector) with an N-terminal six-His tag and purified using a combination of both IMAC (Ni-affinity) and size exclusion chromatography steps.
Recombinant BRD4 was expressed using the E. coli strain BL21-CodonPlus (DE3) (Agilent Technologies CA, USA). Cells were grown in Terrific Broth (TB) media to an OD600 of 2.0 at 37° C. at which temperature was reduced to 18° C., protein was induced with 0.1 mM isopropyl-β-D-thiogalactopyranoside (“IPTG”) for 12-18 hours and harvested by centrifugation at 8000×g for 20 minutes. Cells were re-suspended in 40 mM Tris-HCl pH 8.0, 0.5 M NaCl, 25 mM Imidazole, 5% glycerol, 1/200 vol. Protease Inhibitor Cocktail Set III (Calbiochem), 5 mM beta-mercaptoethanol (“BME”), 0.5 mg/mL Lysozyme, and 0.5 mg/mL DNaseI, incubated on ice for 30 minutes and lysed with a cell disruptor (MicroFluidics MA, USA). The lysate was clarified by centrifugation at 20,000×g for 2 hours. The protein was captured with Ni-NTA resin (Life Technologies, USA). Contaminating proteins were washed off with 40 mM Tris-HCl pH 8.0, 0.5 M NaCl, 25 mM Imidazole, 5% glycerol, and 5 mM BME. Following 3× wash steps, protein was eluted step wise into wash buffer containing 50, 100, 150, 500 mM Imidazole. The protein was further purified using Gel Filtration column 16/60 Superdex 200 (GE Biosciences NJ, USA) in 10 mM HEPES pH 8.0, 150 mM NaCl, and 5 mM DTT. Glycerol was added to a final concentration of 12% and the protein was aliquoted and flash-frozen in liquid Nitrogen.

Cc1noc(C)c1-c1cnc2c(c1)c(-c1c(OC(C)C)cc(C(=O)O)cc1OC(C)C)cn2[C@@H](C)c1ccccn1 [P-0118, (S)-4-(5-(3,5-dimethylisoxazol-4-yl)-1-(1-(pyridin-2-yl)ethyl)-1H-pyrrolo[2,3-b]pyridin-3-yl)-3,5-diisopropoxybenzoic acid] and Cc1noc(C)c1-c1cnc2c(c1)c(-c1ccc(C(=O)O)cc1OC(C)C)cn2[C@@H](C)c1ccccn1 [P-0112, (S)-4-(5-(3,5-dimethylisoxazol-4-yl)-1-(1-(pyridin-2-yl)ethyl)-1H-pyrrolo[2,3-b]pyridin-3-yl)-3-isopropoxybenzoic acid] fall in the same range of pIC50: 3.00 to 5.10 for the first, 3.00 to 5.10 for the second.

First: Cc1noc(C)c1-c1cnc2c(C(O)(C3CC3)C3CC3)cn(-c3ccc(C(=O)O)cc3OC(F)(F)F)c2c1 [P-0163, 4-(3-(dicyclopropyl(hydroxy)methyl)-6-(3,5-dimethylisoxazol-4-yl)-1H-pyrrolo[3,2-b]pyridin-1-yl)-3-(trifluoromethoxy)benzoic acid]
Second: Cc1noc(C)c1-c1cnc2c(Cc3ccccn3)cn(-c3ccc(C(=O)O)cc3OC(F)(F)F)c2c1 [P-0159, 4-(6-(3,5-dimethylisoxazol-4-yl)-3-(pyridin-2-ylmethyl)-1H-pyrrolo[3,2-b]pyridin-1-yl)-3-(trifluoromethoxy)benzoic acid]
The pIC50 of the first is lower: 3.00 to 5.10 for the first, 6.00 to 10.00 for the second.

First: Cc1noc(C)c1-c1cnc2c(-c3cnn(C)c3)c(C(F)(F)F)n([C@@H](C)c3ccccn3)c2c1 [P-0160, (S)-3,5-dimethyl-4-(3-(1-methyl-1H-pyrazol-4-yl)-1-(1-(pyridin-2-yl)ethyl)-2-(trifluoromethyl)-1H-pyrrolo[3,2-b]pyridin-6-yl)isoxazole]
Second: Cc1noc(C)c1-c1cnc2c(c1)c(-c1ccnc(O)c1)cn2[C@@H](C)c1ccccn1 [P-0145, (S)-4-(5-(3,5-dimethylisoxazol-4-yl)-1-(1-(pyridin-2-yl)ethyl)-1H-pyrrolo[2,3-b]pyridin-3-yl)pyridin-2-ol]
The pIC50 of the first is higher: 6.00 to 10.00 for the first, 3.00 to 5.10 for the second.

Cc1noc(C)c1-c1cnc2c(c1)c(-c1cncc(C(=O)O)n1)cn2[C@@H](C)c1ccccn1 [P-0106, (S)-6-(5-(3,5-dimethylisoxazol-4-yl)-1-(1-(pyridin-2-yl)ethyl)-1H-pyrrolo[2,3-b]pyridin-3-yl)pyrazine-2-carboxylic acid] and Cc1noc(C)c1-c1cnc2c(c1)c(-c1ccnc(C(=O)O)n1)cn2C(C)c1ccccn1 (stereo not drawn) [P-0126, 4-(5-(3,5-dimethylisoxazol-4-yl)-1-(1-(pyridin-2-yl)ethyl)-1H-pyrrolo[2,3-b]pyridin-3-yl)pyrimidine-2-carboxylic acid] fall in the same range of pIC50: 3.00 to 5.10 for the first, 3.00 to 5.10 for the second.

First: CC[C@@H](c1ccccn1)n1cc(-c2cc(C(=O)O)ccc2Cl)c2ncc(-c3c(C)noc3C)cc21 [P-0148, (S)-4-chloro-3-(6-(3,5-dimethylisoxazol-4-yl)-1-(1-(pyridin-2-yl)propyl)-1H-pyrrolo[3,2-b]pyridin-3-yl)benzoic acid]
Second: COc1cc(C(=O)O)ccc1-c1cn([C@@H](C)c2ccccn2)c2cc(-c3c(C)noc3C)cnc12 [P-0142, (S)-4-(6-(3,5-dimethylisoxazol-4-yl)-1-(1-(pyridin-2-yl)ethyl)-1H-pyrrolo[3,2-b]pyridin-3-yl)-3-methoxybenzoic acid]
The pIC50 of the first is lower: 5.10 to 6.00 for the first, 6.00 to 10.00 for the second. The second is the more potent here.

Cc1noc(C)c1-c1cnc2c(CC3CCC3)cn(-c3ccc(C(=O)O)c(C#N)c3)c2c1 [P-0105, 2-cyano-4-(3-(cyclobutylmethyl)-6-(3,5-dimethylisoxazol-4-yl)-1H-pyrrolo[3,2-b]pyridin-1-yl)benzoic acid] and Cc1noc(C)c1-c1cnc2c(CC3CCC3)cn(-c3ccc(C#N)c(C(=O)O)c3)c2c1 [P-0104, 2-cyano-5-(3-(cyclobutylmethyl)-6-(3,5-dimethylisoxazol-4-yl)-1H-pyrrolo[3,2-b]pyridin-1-yl)benzoic acid] fall in the same range of pIC50: 3.00 to 5.10 for the first, 3.00 to 5.10 for the second.

Cc1noc(C)c1-c1cnc2c(C3=CCOCC3)cn(-c3c(Cl)cc(C(=O)O)cc3Cl)c2c1 [P-0151, 3,5-dichloro-4-(3-(3,6-dihydro-2H-pyran-4-yl)-6-(3,5-dimethylisoxazol-4-yl)-1H-pyrrolo[3,2-b]pyridin-1-yl)benzoic acid] and Cc1noc(C)c1-c1cnc2c(C(=O)C3CCC3)cn(-c3c(Cl)cc(C(=O)O)cc3Cl)c2c1 [P-0121, 3,5-dichloro-4-(3-(cyclobutanecarbonyl)-6-(3,5-dimethylisoxazol-4-yl)-1H-pyrrolo[3,2-b]pyridin-1-yl)benzoic acid] fall in the same range of pIC50: 5.10 to 6.00 for the first, 5.10 to 6.00 for the second.

Compared with CCOc1cc(C(=O)O)cc(F)c1-n1cc(CC2CCC2)c2ncc(-c3c(C)noc3C)cc21 [P-0108, 4-(3-(cyclobutylmethyl)-6-(3,5-dimethylisoxazol-4-yl)-1H-pyrrolo[3,2-b]pyridin-1-yl)-3-ethoxy-5-fluorobenzoic acid], CCCOc1cc(C(=O)O)cc(OCCC)c1-n1cc(CC2CCC2)c2ncc(-c3c(C)noc3C)cc21 [P-0127, 4-(3-(cyclobutylmethyl)-6-(3,5-dimethylisoxazol-4-yl)-1H-pyrrolo[3,2-b]pyridin-1-yl)-3,5-dipropoxybenzoic acid] is lower in pIC50: 5.10 to 6.00 for the first, 3.00 to 5.10 for the second. The first is the more potent here.

First: COc1ccc(C(=O)O)cc1-n1cc(CC2CCC2)c2ncc(-c3c(C)noc3C)cc21 [P-0098, 3-(3-(cyclobutylmethyl)-6-(3,5-dimethylisoxazol-4-yl)-1H-pyrrolo[3,2-b]pyridin-1-yl)-4-methoxybenzoic acid]
Second: Cc1noc(C)c1-c1cnc2c(CC3CCC3)cn(-c3ccc(C(=O)O)cn3)c2c1 [P-0009, 6-(3-(cyclobutylmethyl)-6-(3,5-dimethylisoxazol-4-yl)-1H-pyrrolo[3,2-b]pyridin-1-yl)nicotinic acid]
The pIC50 of the first is higher: 5.10 to 6.00 for the first, 3.00 to 5.10 for the second. The first is the more potent here.

Cc1noc(C)c1-c1cnc2c(c1)c(-c1ccc(C(=O)O)cc1OCC(F)(F)F)cn2[C@@H](C)c1ccccn1 [P-0115, (S)-4-(5-(3,5-dimethylisoxazol-4-yl)-1-(1-(pyridin-2-yl)ethyl)-1H-pyrrolo[2,3-b]pyridin-3-yl)-3-(2,2,2-trifluoroethoxy)benzoic acid] and CCOc1cc(C(=O)O)ccc1-c1cn([C@@H](C)c2ccccn2)c2ncc(-c3c(C)noc3C)cc12 [P-0114, (S)-4-(5-(3,5-dimethylisoxazol-4-yl)-1-(1-(pyridin-2-yl)ethyl)-1H-pyrrolo[2,3-b]pyridin-3-yl)-3-ethoxybenzoic acid] fall in the same range of pIC50: 3.00 to 5.10 for the first, 3.00 to 5.10 for the second.

Cc1noc(C)c1-c1cnc2c(c1)c(-c1ccc(C(=O)O)cc1OC1COC1)cn2[C@@H](C)c1ccccn1 [P-0137, (S)-4-(5-(3,5-dimethylisoxazol-4-yl)-1-(1-(pyridin-2-yl)ethyl)-1H-pyrrolo[2,3-b]pyridin-3-yl)-3-(oxetan-3-yloxy)benzoic acid] and COc1ccc(C(=O)O)cc1-c1cn(C(C)c2ccccc2)c2cc(-c3c(C)noc3C)cnc12 (stereo not drawn) [P-0140, 3-(6-(3,5-dimethylisoxazol-4-yl)-1-(1-phenylethyl)-1H-pyrrolo[3,2-b]pyridin-3-yl)-4-methoxybenzoic acid] fall in the same range of pIC50: 3.00 to 5.10 for the first, 3.00 to 5.10 for the second.

COc1ccc(-n2cc(CC3CCC3)c3ncc(-c4c(C)noc4C)cc32)cn1 [P-0134, 4-(3-(cyclobutylmethyl)-1-(6-methoxypyridin-3-yl)-1H-pyrrolo[3,2-b]pyridin-6-yl)-3,5-dimethylisoxazole] and Cc1noc(C)c1-c1cnc2c(Cc3ccccn3)cn(-c3ccc(C(=O)O)cn3)c2c1 [P-0011, 6-(6-(3,5-dimethylisoxazol-4-yl)-3-(pyridin-2-ylmethyl)-1H-pyrrolo[3,2-b]pyridin-1-yl)nicotinic acid] fall in the same range of pIC50: 3.00 to 5.10 for the first, 3.00 to 5.10 for the second.
